Key:
[1] = system: SMMC-7721; test: Cytotoxicity against human SMMC7721 cells assessed as reduction in cell viability after 48 hrs by MTT assay; assay type: functional, cell-based; settings: SMMC-7721, 48 h
[2] = system: L02; test: Cytotoxicity against human LO2 cells assessed as reduction in cell viability after 48 hrs by MTT assay; assay type: cell-based; settings: L02, 48 h
[3] = system: HepG2; test: Cytotoxicity against human HepG2 cells assessed as reduction in cell viability after 48 hrs by MTT assay; assay type: functional, cell-based; settings: HepG2, 48 h

Molecule COC(=O)[C@]1(C)CCC[C@]2(C)c3cc(Br)c([N+](=O)[O-])c([N+](=O)[O-])c3CC[C@@H]12 has an IC50 [1] of 29.8 µM, an IC50 [2] greater than 50 µM and an IC50 [3] of 34.2 µM.

Work on COC(=O)[C@]1(C)CCC[C@]2(C)c3cc(Br)c4nc(NCc5cc(F)ccc5O)[nH]c4c3CC[C@@H]12 yielded an IC50 [1] of 10.6 µM, an IC50 [2] of 31.4 µM and an IC50 [3] of 4.6 µM.

COC(=O)[C@]1(C)CCC[C@]2(C)c3cc(Br)c4nc(/N=C/c5ccc(F)cc5O)[nH]c4c3CC[C@@H]12 was tested, and the IC50 [1] was 12.2 µM, the IC50 [2] was 19 µM and the IC50 [3] was 1.24 µM.

COC(=O)[C@]1(C)CCC[C@]2(C)c3cc(Br)c4nc(NCc5cc(Br)ccc5O)[nH]c4c3CC[C@@H]12 showed an IC50 [1] of 4.02 µM, an IC50 [2] of 21.6 µM and an IC50 [3] of 4.21 µM.

COC(=O)[C@]1(C)CCC[C@]2(C)c3cc(Br)c4nc(/N=C/c5cc(Cl)cc(Cl)c5O)[nH]c4c3CC[C@@H]12 was tested, and the IC50 [1] was 1.72 µM, the IC50 [2] was 7.21 µM and the IC50 [3] was 0.69 µM.

COC(=O)[C@]1(C)CCC[C@]2(C)c3cc(Br)c4nc(NCc5cccc(F)c5O)[nH]c4c3CC[C@@H]12 showed an IC50 [1] of 4.27 µM, an IC50 [2] of 12.7 µM and an IC50 [3] of 1.65 µM.

In the case of COC(=O)[C@]1(C)CCC[C@]2(C)c3cc(Br)c4nc(/N=C/c5ccccc5O)[nH]c4c3CC[C@@H]12, the IC50 [1] is reported as 2.47 µM, the IC50 [2] is reported as 6.27 µM and the IC50 [3] is reported as 0.21 µM.

With CCN(CC)c1ccc(CNc2nc3c(Br)cc4c(c3[nH]2)CC[C@H]2[C@](C)(C(=O)OC)CCC[C@]42C)c(O)c1 the IC50 [1] was 3.76 µM, the IC50 [2] was 12.2 µM and the IC50 [3] was 3.38 µM.

For COC(=O)[C@]1(C)CCC[C@]2(C)c3cc(Br)c4nc(NCc5cc(C)ccc5O)[nH]c4c3CC[C@@H]12, the IC50 [1] was 0.83 µM, the IC50 [2] was 17.3 µM and the IC50 [3] was 6.22 µM.

For COC(=O)[C@]1(C)CCC[C@]2(C)c3cc(Br)c4nc(/N=C/c5ccc6ccccc6c5O)[nH]c4c3CC[C@@H]12, the IC50 [1] was 2.08 µM, the IC50 [2] was 10.8 µM and the IC50 [3] was 1.08 µM.

COC(=O)[C@]1(C)CCC[C@]2(C)c3cc(Br)c4nc(NCc5ccccc5O)[nH]c4c3CC[C@@H]12 was tested, and the IC50 [1] was 3.15 µM, the IC50 [2] was greater than 50 µM and the IC50 [3] was 22.5 µM.

With COC(=O)[C@]1(C)CCC[C@]2(C)c3cc(Br)c4nc(NCc5cc(Cl)ccc5O)[nH]c4c3CC[C@@H]12 the IC50 [1] was 3.19 µM, the IC50 [2] was 26.8 µM and the IC50 [3] was 11.8 µM.

COC(=O)[C@]1(C)CCC[C@]2(C)c3cc(Br)c(N)c(N)c3CC[C@@H]12 showed an IC50 [1] greater than 50 µM, an IC50 [2] greater than 50 µM and an IC50 [3] greater than 50 µM.

Source: ChEMBL document CHEMBL3994647, “Synthesis and in vitro cytotoxic evaluation of new 1H-benzo[d]imidazole derivatives of dehydroabietic acid” (Bioorg Med Chem Lett, 2017)
